Laboratory results reported in PMC2254147, “Novel Triazine JPC-2067-B Inhibits Toxoplasma gondii In Vitro and In Vivo” (PLoS Neglected Tropical Diseases, 2008).
≈ marks a conversion by molar mass, not a printed value. Like-named read-outs stand apart in the source and are kept apart here.

What was measured:
Rat liver DHFR = biological target: T1, Rat liver DHFR (Rattus norvegicus, UniProt Q920D2); experiment: Spectrophotometric DHFR assay, rat liver DHFR; assay type: biochemical; details: for IC50: 37°C, (95% confidence limits); for Selectivity for pathogen DHFR (in words): rat liver DHFR versus Pc, Tg, Mav DHFR, Table 1
T1 construct: Rat liver DHFR was prepared from livers of female Sprague-Dawley rats; from tissue; host or cells: liver of female Sprague-Dawley rats
T1 sequence (Q920D2 1-187): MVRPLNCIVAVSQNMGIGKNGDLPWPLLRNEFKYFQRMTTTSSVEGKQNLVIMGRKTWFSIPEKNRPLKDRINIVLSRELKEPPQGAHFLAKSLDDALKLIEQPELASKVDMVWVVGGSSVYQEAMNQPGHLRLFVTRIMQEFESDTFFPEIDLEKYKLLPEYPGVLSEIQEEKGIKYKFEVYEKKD
Description: Rat liver DHFR was prepared from livers of female Sprague-Dawley rats. The 100,000× g supernate was partially purified by ammonium sulfate precipitation; the 50–90% precipitate was re-dissolved and stored in liquid nitrogen.
(§1) The spectrophotometric assay for DHFR was optimized for temperature and concentration of substrate and cofactor for each enzyme. […] The reaction was continuously recorded for 3 minutes. […] The low background activity in the absence of dihydrofolic acid was subtracted from all rates.
(§2) DHFR was assayed with several concentrations of inhibitor to produce rates ranging from 1 to 90% of the uninhibited rate. At least three concentrations were required for calculation; most curves contained five concentrations.

Pc DHFR = biological target: T2, Pc DHFR (Pneumocystis carinii, UniProt P16184); experiment: Spectrophotometric DHFR assay, Pneumocystis carinii DHFR; assay type: biochemical
T2 construct: made in house; host or cells: Escherichia coli
T2 sequence (P16184 1-206): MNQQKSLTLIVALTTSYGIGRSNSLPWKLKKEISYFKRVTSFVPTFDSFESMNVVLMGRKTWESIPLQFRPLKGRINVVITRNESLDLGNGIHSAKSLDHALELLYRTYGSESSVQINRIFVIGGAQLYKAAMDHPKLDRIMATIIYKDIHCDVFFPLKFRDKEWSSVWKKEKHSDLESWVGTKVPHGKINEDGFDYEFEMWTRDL
Description: DHFR from Pneumocystis carinii was produced as the recombinant enzyme expressed in Escherichia coli. […] DHFR from T. gondii was isolated directly from RH strain T. gondii grown in culture on Chinese hamster ovary cells lacking DHFR (CHO/dhfr^-, American Type Culture Collection 3952 CL). Organisms were introduced into a confluent monolayer and harvested when the mammalian cells were lysed. The 100,000× g supernate was stored in liquid nitrogen.
The spectrophotometric assay for DHFR was optimized for temperature and concentration of substrate and cofactor for each enzyme. The standard assay contained Na phosphate buffer pH 7.4 (40.7 mM), 2-mercaptoethanol (8.9 mM), NADPH (0.117 mM), dihydrofolic acid (0.09 mM), KCL (150 mM), and sufficient enzyme to produce a change in OD340 of 0.035/minute at 37°C. The reaction was continuously recorded for 3 minutes. […] The low background activity in the absence of dihydrofolic acid was subtracted from all rates.
as §2

TgDHFR = biological target: T3, TgDHFR (Toxoplasma gondii, UniProt Q07422); experiment: biochemical; assay type: biochemical
T3 construct: DHFR from T. gondii was isolated directly from RH strain T. gondii grown in culture; endogenous in cells; host or cells: RH strain T. gondii grown on CHO/dhfr- cells
T3 sequence (Q07422 1-610): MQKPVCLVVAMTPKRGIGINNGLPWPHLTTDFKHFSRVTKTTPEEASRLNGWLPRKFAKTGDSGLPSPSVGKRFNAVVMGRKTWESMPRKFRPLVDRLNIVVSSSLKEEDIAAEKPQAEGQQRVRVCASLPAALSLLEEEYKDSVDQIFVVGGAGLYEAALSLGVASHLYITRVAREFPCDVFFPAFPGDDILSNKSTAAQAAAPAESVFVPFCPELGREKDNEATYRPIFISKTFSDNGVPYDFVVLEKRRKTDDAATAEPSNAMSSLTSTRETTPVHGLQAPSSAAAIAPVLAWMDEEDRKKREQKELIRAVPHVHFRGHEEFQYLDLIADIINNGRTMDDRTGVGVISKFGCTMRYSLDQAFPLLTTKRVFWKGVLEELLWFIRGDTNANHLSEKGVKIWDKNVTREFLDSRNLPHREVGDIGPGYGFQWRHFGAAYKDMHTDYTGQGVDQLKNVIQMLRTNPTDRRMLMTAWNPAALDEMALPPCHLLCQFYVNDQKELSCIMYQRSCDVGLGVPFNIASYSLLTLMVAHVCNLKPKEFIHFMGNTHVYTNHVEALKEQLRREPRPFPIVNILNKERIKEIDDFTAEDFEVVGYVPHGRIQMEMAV
Description: DHFR from Pneumocystis carinii was produced as the recombinant enzyme expressed in Escherichia coli. […] Organisms were introduced into a confluent monolayer and harvested when the mammalian cells were lysed. The 100,000× g supernate was stored in liquid nitrogen.
as §1, §2

Mav DHFR = biological target: T4, Mav DHFR (Mycobacterium avium, UniProt O30463); experiment: Spectrophotometric DHFR assay, Mycobacterium avium-intracellulare DHFR; assay type: biochemical; details: 37°C; (95% confidence limits)
T4 construct: the bacteria were centrifuged, sonicated, and the 100,000 Xg supernate was stored under liquid nitrogen until assay; endogenous in cells; host or cells: M. avium-intracellulare clinical isolate (serovar 4), Indiana University School of Medicine
T4 sequence (O30463 1-181): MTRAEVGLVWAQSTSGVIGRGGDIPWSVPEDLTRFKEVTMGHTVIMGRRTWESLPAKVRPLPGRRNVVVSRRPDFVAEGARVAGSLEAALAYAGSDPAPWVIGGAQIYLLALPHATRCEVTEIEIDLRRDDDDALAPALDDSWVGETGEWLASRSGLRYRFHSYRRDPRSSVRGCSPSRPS
Description: Mycobacterium avium-intracellulare used in these studies was a clinical isolate (serovar 4) from Indiana University School of Medicine, Department of Pathology. The strain was maintained on Lowenstein-Jensen slants (Baxter Scientific) grown at room temperature. To produce enzyme, the organism was grown in Middlebrook 7H-9 liquid medium at 37°C to an OD660 of 0.5 to 0.7, which took several weeks. At harvest, the bacteria were centrifuged, sonicated, and the 100,000 Xg supernate was stored under liquid nitrogen until assay. These supernates contained both DHFR and dihydroopteroate synthetase activity.
The spectrophotometric assay for DHFR was optimized for temperature and concentration of substrate and cofactor for each enzyme. The standard assay contained Na phosphate buffer pH 7.4 (40.7 mM), 2-mercaptoethanol (8.9 mM), NADPH (0.117 mM), dihydrofolic acid (0.09 mM), KCL (150 mM), and sufficient enzyme to produce a change in OD340 of 0.035/minute at 37°C. The reaction was continuously recorded for 3 minutes. Activity under these conditions was linear with enzyme concentration over a 4-fold range. The low background activity in the absence of dihydrofolic acid was subtracted from all rates.
as §2

[1] = Thompson Antimalarial Assay LD50; details: mouse, in vivo; @ Day 6
[2] = tested on: tester strains TA97, TA98, TA100, TA102 and TA1535; experiment: Ames Test with and without microsomal activation; details: Tester Strains TA98, TA100, TA1535, TA1537 and TA1538
P. falciparum strains = details: drug-sensitive and drug-resistant strains; ref [4]-[10]; cited from earlier work
P. falciparum = details: ref [4]-[11]; cited from earlier work
[3] = ref 4 (superscript at the row head, footnote not given); cited from earlier work
[4] = ref 4 (superscript at the row head, footnote not given); cited from earlier work; remark: listed apart in the source
[5] = tested on: tester strains TA97, TA98, TA100, TA102 and TA1535; experiment: Ames Test with and without microsomal activation
Description: (§3) A 42-day toxicology study in CD-1 mice at doses up to 98 mg/kg evaluating well-being, weight gain, and histopathology was performed. […] 7.5 mg/kg was established as the NOAEL (No Observed Adverse Effect Level). JPC-2056 and JPC-2067 were assayed in the Ames Test with and without microsomal activation with tester strains TA97, TA98, TA100, TA102 and TA1535.

[6] = 42-day toxicology study in CD-1 mice; assay type: in vivo
Description: as §3

[7] = 42-day toxicology study in Macaca fascicularis; assay type: in vivo
[8] = 42-day study, doses up to 98 mg/kg

## CC1(C)N=C(N)N=C(N)N1OCCCOc1cc(Cl)c(Cl)cc1Cl [JPC-208-B, 4,6-diamino-1,2-dihydro-2,2-dimethyl-1-[3′(2,4,5-trichlorophenoxy)propyloxy]-1,3,5-triazine]
Rat liver DHFR
  IC50: 0.81 nM
  Selectivity for pathogen DHFR (in words): not selective
Pc DHFR; 37°C, (95% confidence limits), read-out: Pc DHFR IC50
  IC50: 0.265 nM
TgDHFR; 37°C, (95% confidence limits), read-out: Tg DHFR IC50
  IC50: 0.602 nM
Mav DHFR
  IC50: 0.57 nM
[1]
  LD50 at 6 day: > 128 mg/kg
[2]
  Ames w/o Activation: Not Active ^#
  Ames with Activation: Not Active ^#
P. falciparum strains
  ED50 in vitro against P. falciparum strains: 0.05 ng/mL (≈ 0.127 nM)
P. falciparum
  Activity in vivo against P. falciparum, greater than that of pyrimethamine: 2 logs
[3]
  Oral LD50 Rat: 1,980 mg/kg
[4]
  Oral LD50 Mouse: 3,510 mg/kg

## CCc1nc(N)nc(N)c1-c1ccc(Cl)cc1 [JPC-1090-A-1, Pyrimethamine]
Rat liver DHFR
  IC50: 1320 nM
Pc DHFR
  IC50: 6170 nM
Mav DHFR
  IC50: 1200 nM

## CC1(C)N=C(N)N=C(N)N1c1ccc(Cl)cc1 [JPC-2013-B-1, cycloguanil]
Rat liver DHFR
  IC50: 1730 nM
  Selectivity for pathogen DHFR (in words): not significantly selective
Pc DHFR
  IC50: 8900 nM
TgDHFR
  IC50: 410 nM
Mav DHFR
  IC50: 12100 nM

## CC(C)NC(=N)NC(=N)NOCCCOc1ccc(OC(F)(F)F)cc1Cl [JPC-2056, 1-(3′-(2-chloro-4-trifluoromethoxyphenyloxy)propyloxy)-5-isopropylbiguanide]
[5]
  Ames Test, with and without microsomal activation: No activity
  Ames w/o Activation: Not Active ^*
  Ames with Activation: Not Active ^*
[6]; 98 mg/kg for 42 days
  Toxicological findings, CD-1 Mice: Inhibition of Weight Gain at 98 mg/kg for 42 days
[6]; [8]
  Gross pathology, CD-1 mice: no gross pathology with the exception of a reduction in the rate of weight gain
  Histopathology findings, CD-1 mice: no histopathology findings
[7]; 15 mg/kg for 42 days
  Toxicological findings, Cynomolgous Monkey: Intermittent Loose Stools/Diarrhea 15 mg/kg for 42 days
[7]; 42-day study, 15 mg/kg, resolved upon drug withdrawal
  Findings in Macaca fascicularis at 15 mg/kg: histopathology findings at 15 mg/kg with sproradic episodes of loose stools/diarrhea
[7]; cynomolgus monkey, in vivo, 42-day study, read-out: NOAEL (No Observed Adverse Effect Level)
  NOAEL at 42 day: 7.5 mg/kg
[1]
  LD50 at 6 day: 256 mg/kg

## CC(C)N=C(N)/N=C(\N)NOCCCOc1cc(Cl)c(Cl)cc1Cl.Cl [PS-15]
P. falciparum
  Activity in vivo against P. falciparum, greater than that of pyrimethamine: 2 logs
